From patent publication US20080064665A1, “Combination approaches to cancer treatment” (priority 2006, published 2008) come the findings set out here.

In series [1] the test system is 22RV1 androgen-resistant human prostate cancer xenograft. In words: Growth delay and survival of 22RV1 xenograft, PR-104 and docetaxel. The series is classed as in vivo, CD-1 nude mice. Here is the method: End-point: After treatment, tumor size and body weights were measured regularly and mice were culled either when the average diameter of the tumor reached 15 mm (end-point), the tumor ulcerated or when the body weight change reached −15%. Experiment was ended and all remaining mice culled 120 days after treatment.
Analysis: End-points will be expressed as TTE50, Median RTV^4 and plotted in Kaplan-Meier Plots and analysed by Log Rank P statistical test.

The test system of series [2] is SiHa cervical cancer xenografts. In words: Excision assay of SiHa xenografts (clonogenic log cell kill). The series is classed as in vivo, CD-1 Fox^nu mice. The note with it: SN 28343 91.2 mg/kg, SN 29303 375 mg/kg. On the procedure:
As for Part 1 except for except where noted below.
Excess compound was discarded.
Date, body weights (used to adjust injection volume), tumor diameter, unique identifier (tail markings), body weight, and volume to be injected were recorded. Animals were dosed with the test articles i.p. following a defined treatment schedule:
18 hours after treatment the mice were culled by cervical dislocation and tumors removed by dissection, in a sterile laminar flow hood. Whole tumor weights were recorded. Tumors were minced using scissors or scalpels until a fine minceate was obtained, and up to 500 mg of minceate was transferred into a pre-tiered Falcon®14 ml test tube containing a sterile magnetic spin bar and re-weighed.
Samples were then incubated in 37° C. water bath for 30 min over a magnetic stirrer.
After incubation any undissociated material was allowed to settle for 1 minute. […] Pellets were re-suspended in 10 ml of medium. Cells/ml was determined using an electronic particle counter (Beckman Coulter Electronics, Z2 model). Samples were then diluted to 1×10^5cells/ml and 6-fold serial dilutions made down to 4.6×10^2cells/ml.
1 ml of each sample was plated in triplicate for each dilution into appropriately labelled Falcon® P-60 tissue culture dishes containing 4 ml of αMEM+10% FCS+PS.
Where possible, all plates were counted; those colonies counted=larger than 50 cells, confirmed with the light microscope. TMTC was recorded for those plates where there were too many colonies to count.
The criteria for selecting the best dilution to use for calculating plating efficiency (PE):
Higher dilution count>100 colonies (average); lower dilution 10-100 colonies, use PE from the dilution with fewer colonies.
Higher dilution count >100; lower dilution count <20, use average data from both.
Higher dilution count <100; lower dilution count <20, use PE from the dilution with more colonies.
Higher dilution count <100; lower dilution count >20, use average data from both. Note: For the 10^5 dilution, take as the “lower limit” colony count a total count of 30, (sum of all replicates).

Setting [3] is: 22RV1 xenograft, PR-104 652 mg/kg, docetaxel 73 mg/kg, q2w×2.

Molecules are shown by their SMILES.

Regarding `CC(=O)O[C@@]12CO[C@@H]1C[C@H](O)[C@@]1(C)C(=O)[C@H](O)C3=C(C)[C@@H](OC(=O)[C@H](O)[C@@H](NC(=O)OC(C)(C)C)c4ccccc4)C[C@@](O)([C@@H](OC(=O)c4ccccc4)[C@H]21)C3(C)C` [Docetaxel, (2R,3S)-N-carboxy-3-phenylisoserine, N-tert-butyl ester, 13-ester with 5β-20-epoxy-1,2α,4,7β,10β,13α-hexahydroxytax-11-en-9-one 4-acetate 2-benzoate, trihydrate, reference compound], in series [1] (22RV1 prostate xenograft model), the “activity against 22RV1 xenograft (in words)” value is given as “moderately active”. Further, in series [1] (22RV1 xenograft, CD-1 nude mice, PR-104 652 mg/kg, docetaxel 73 mg/kg, i.p., q2w×2, trihydrate), the “Weight Loss Nadir (%)” value is recorded as −3.5±0.8%. The “LTC (long term control)” value in series [1] (22RV1 xenograft, 120 day experiment) is 0. In series [1] (setting [3]), the “Median RTV^4” value was found to be 20 days, the “TGD (relative gain in median RTV^4 versus control; TGI in text)” value is listed as 122% and the TTE50 is recorded as 24 days. Also, the “median tumor growth delay” value in series [1] (22RV1 xenograft, versus control) turned out to be 11 days. In series [1] (22RV1 xenograft, versus control (9.5 days)), the “Gain TTE50 (improvement in median survival)” value is 14.5 days. Besides, in series [2] (SiHa human cervical tumor xenograft, docetaxel 65 mg/kg i.p.), the “cell kill versus controls in excision assay (in words)” value is “inactive”. For the same compound, the “Log Cell Kill versus controls (Mean ± SEM)” value in series [2] (SiHa tumors excised 18 hours after treatment, docetaxel 65 mg/kg, i.p.) is on record as 0.451.
